Experimental findings from US7932283B2, “Fungicide N-cyclopropyl-sulfonylamide derivatives” (Bayer Cropscience AG, priority 2006, dated 2011) are described below.

Structures are written as SMILES.

One data set can be described thus: logP by HPLC on reversed-phase column (C 18), EEC Directive 79/B31 Annex V.A8, methods A and B. Format: physicochemical. The settings on record: reversed-phase HPLC column (C 18), HPLC reversed-phase C 18, method A: 43° C., 0.1% aqueous phosphoric acid, acetonitrile, linear gradient 10% to 90% acetonitrile. The method, then: Calibration was carried out using unbranched alkan-2-ones (having 3 to 16 carbon atoms) with known logP values (determination of the logP values by the retention times using linear interpolation between two successive alkanones).
For `O=C(c1cc(Br)c(Br)o1)N(C1CC1)S(=O)(=O)c1ccccc1O` [Compound 1], the chromatographic logP (usually a lipophilicity value derived from retention on a column) worked out at 3.58. On the same count and under the same terms, to `Cc1occc1C(=O)N(C1CC1)S(=O)(=O)c1cccc(O)c1` [Compound 3] belongs 3.27. On the same count and under the same terms, to `Cc1occc1C(=O)N(C1CC1)S(=O)(=O)c1ccccc1O` [Compound 4] belongs 2.77; to `Cc1ccsc1C(=O)N(C1CC1)S(=O)(=O)c1cccc(O)c1` [Compound 13], 3.64; to `Cc1ccsc1C(=O)N(C1CC1)S(=O)(=O)c1ccccc1O` [Compound 14], 3.12. On the same count and under the same terms, with `O=C(c1cc(Br)c(Br)s1)N(C1CC1)S(=O)(=O)c1ccccc1O` [Compound 15] the figure was 4.07; with `CCOC(=O)c1[nH]c(C)c(C(=O)N(C2CC2)S(=O)(=O)c2cccc(O)c2)c1C` [Compound 29], 3.46. `CCOC(=O)c1[nH]c(C)c(C(=O)N(C2CC2)S(=O)(=O)c2ccc(C(F)(F)F)cc2)c1C` [Compound 30]: the chromatographic logP is 3.72. As for `CCOC(=O)c1[nH]c(C)c(C(=O)N(C2CC2)S(=O)(=O)c2ccc(O)c(C(F)(F)F)c2)c1C` [Compound 31], the chromatographic logP came to 4.08. Still for that read-out and setting: with `CCOC(=O)c1[nH]c(C)c(C(=O)N(C2CC2)S(=O)(=O)c2ccc(O)cc2O)c1C` [Compound 32] the figure was 3.63; with `CCOC(=O)c1[nH]c(C)c(C(=O)N(C2CC2)S(=O)(=O)c2ccc(C(C)(C)C)cc2)c1C` [Compound 33], 4.13. Molecule `Cc1nc(C(F)(F)F)c(C(=O)N(C2CC2)S(=O)(=O)c2ccccc2O)s1` [Compound 59] had a chromatographic logP of 3.2.

Molecule `Cc1ncc(C(=O)N(C2CC2)S(=O)(=O)c2cccc(O)c2)s1` [Compound 60] yielded a chromatographic logP of 2.8. For the molecule `Cc1ncc(C(=O)N(C2CC2)S(=O)(=O)c2ccc(C(F)(F)F)cc2)s1` [Compound 61], the chromatographic logP was found to be 3.1.

`Cc1ncc(C(=O)N(C2CC2)S(=O)(=O)c2ccc(O)c(C(F)(F)F)c2)s1` [Compound 62] came in with a chromatographic logP of 3.46.

`Cc1ncc(C(=O)N(C2CC2)S(=O)(=O)c2ccc(O)c(O)c2)s1` [Compound 63] displayed a chromatographic logP of 3.33.

Turning to `Cc1ncc(C(=O)N(C2CC2)S(=O)(=O)c2ccc(O)cc2O)s1` [Compound 64], the chromatographic logP was determined as 2.91. Same read-out and setting: to `Cc1nc(C(=O)N(C2CC2)S(=O)(=O)c2ccc(C(F)(F)F)cc2)cs1` [Compound 68] belongs 3.18. `Cc1nc(C(=O)N(C2CC2)S(=O)(=O)c2ccc(O)c(C(F)(F)F)c2)cs1` [Compound 69] yielded a chromatographic logP of 3.63. Same read-out and setting: with `Cc1nc(C(=O)N(C2CC2)S(=O)(=O)c2ccc(O)c(O)c2)cs1` [Compound 70] the figure was 3.46.

Molecule `Cc1nc(C(=O)N(C2CC2)S(=O)(=O)c2ccc(O)cc2O)cs1` [Compound 71] returned a chromatographic logP of 3.03.

Regarding `Cc1nc(C(=O)N(C2CC2)S(=O)(=O)c2ccc(C(C)(C)C)cc2)cs1` [Compound 72], the chromatographic logP is 3.59.

The same data set, now with this note: reversed-phase HPLC column (C 18), HPLC reversed-phase C 18, method B: 40° C., 0.1% aqueous formic acid and acetonitrile, linear gradient 10% to 90% acetonitrile.
`Cc1cc(C(=O)N(C2CC2)S(=O)(=O)c2cccc(O)c2O)c(C)o1` [Compound 5] showed a chromatographic logP of 3.8. Same read-out and setting: with `Cc1cc(C(=O)N(C2CC2)S(=O)(=O)c2ccc(O)c(O)c2O)c(C)o1` [Compound 6] the figure was 4.4; with `Cc1cc(C(=O)N(C2CC2)S(=O)(=O)c2ccc(Oc3ccc(Br)cc3)cc2)c(C)o1` [Compound 7], 4.9. In the case of `O=C(c1ccsc1I)N(C1CC1)S(=O)(=O)c1cccc(O)c1O` [Compound 19], the chromatographic logP amounted to 3.8. The same measure, in the same setting: to `O=C(c1ccsc1I)N(C1CC1)S(=O)(=O)c1ccc(Oc2ccccc2)cc1` [Compound 21] belongs 4.3; to `O=C(c1ccsc1I)N(C1CC1)S(=O)(=O)c1ccc(Oc2ccc(Br)cc2)cc1` [Compound 22], 4.9; to `COc1cscc1C(=O)N(C1CC1)S(=O)(=O)c1cccc(O)c1O` [Compound 25], 3.3. On the same count and under the same terms, to `COc1cscc1C(=O)N(C1CC1)S(=O)(=O)c1ccc(Oc2ccccc2)cc1` [Compound 26] belongs 3.9; to `COc1cscc1C(=O)N(C1CC1)S(=O)(=O)c1ccc(O)c(O)c1O` [Compound 27], 3.9. For the molecule `COc1cscc1C(=O)N(C1CC1)S(=O)(=O)c1ccc(Oc2ccc(Br)cc2)cc1` [Compound 28], the chromatographic logP was determined as 4.4. On to `CCOC(=O)c1[nH]c(C)c(C(=O)N(C2CC2)S(=O)(=O)c2cccc(O)c2O)c1C` [Compound 34], for which the chromatographic logP was 3.5. For the molecule `Cn1cc(C(=O)N(C2CC2)S(=O)(=O)c2cccc(O)c2O)c(C(F)(F)F)c1` [Compound 36], the chromatographic logP is 3.3. On the same count and under the same terms, with `Cn1cc(C(=O)N(C2CC2)S(=O)(=O)c2ccc(O)c(O)c2O)c(C(F)(F)F)c1` [Compound 37] the figure was 3.9; with `Cn1cc(C(=O)N(C2CC2)S(=O)(=O)c2ccc(Oc3ccccc3)cc2)c(C(F)(F)F)c1` [Compound 38], 4; with `Cn1cc(C(=O)N(C2CC2)S(=O)(=O)c2ccc(Oc3ccc(Br)cc3)cc2)c(C(F)(F)F)c1` [Compound 39], 4.5.

The molecule `Cc1nc(C(F)(F)F)c(C(=O)N(C2CC2)S(=O)(=O)c2ccc(Oc3ccccc3)cc2)s1` [Compound 66] returned a chromatographic logP of 4.4. The same measure, in the same setting: with `Cc1cc(C(=O)N(C2CC2)S(=O)(=O)c2cccc(O)c2O)nn1C` [Compound 74] the figure was 2.7; with `Cc1cc(C(=O)N(C2CC2)S(=O)(=O)c2ccc(O)c(O)c2O)nn1C` [Compound 75], 3.3.

`Cc1cc(C(=O)N(C2CC2)S(=O)(=O)c2ccc(Oc3ccccc3)cc2)nn1C` [Compound 76] displayed a chromatographic logP of 3.4. As to `Cc1cc(C(=O)N(C2CC2)S(=O)(=O)c2ccc(Oc3ccc(Br)cc3)cc2)nn1C` [Compound 77], the chromatographic logP worked out at 4. In turn, `CC(C)c1nn(C)c(F)c1C(=O)N(C1CC1)S(=O)(=O)c1cccc(O)c1O` [Compound 93] returned a chromatographic logP of 3.6. On the same count and under the same terms, to `CC(C)c1nn(C)c(F)c1C(=O)N(C1CC1)S(=O)(=O)c1ccccc1O` [Compound 95] belongs 3.1. For the molecule `CC(C)c1nn(C)c(F)c1C(=O)N(C1CC1)S(=O)(=O)c1ccc(O)cc1O` [Compound 96], the chromatographic logP was 3.8. Same read-out and setting: with `CC(C)c1nn(C)c(F)c1C(=O)N(C1CC1)S(=O)(=O)c1ccc(C(F)(F)F)cc1O` [Compound 97] the figure was 4; with `CC(C)c1nn(C)c(F)c1C(=O)N(C1CC1)S(=O)(=O)c1ccccc1C(F)(F)F` [Compound 98], 3.4; with `Cn1nc(-c2ccccc2)c(C(=O)N(C2CC2)S(=O)(=O)c2ccc(O)c(O)c2O)c1F` [Compound 100], 4.3. The same measure, in the same setting: with `Cn1nc(-c2ccccc2)c(C(=O)N(C2CC2)S(=O)(=O)c2cccc(O)c2O)c1F` [Compound 101] the figure was 3.7. The same measure, in the same setting: to `Cn1nc(C(F)F)c(C(=O)N(C2CC2)S(=O)(=O)c2ccccc2O)c1F` [Compound 103] belongs 2.8; to `Cn1nc(C(F)F)c(C(=O)N(C2CC2)S(=O)(=O)c2ccc(O)cc2O)c1F` [Compound 105], 3.4.
